Experimental data as given in article PMC7243741 (Bioorganic & medicinal chemistry letters, 2019).

Experiments:
3T3-L1 cells = test: Oil Red O staining of 3T3-L1 adipocyte differentiation; assay type: cell-based, mouse; conditions: 3T3-L1 in differentiation media, compounds at 10 μM
[1] = test system: PPARγ phosphorylation at S273; assay type: cell-based, mouse; conditions: 3T3-L1 differentiated adipocytes, in the presence of TNFα, compounds at 10 μM, Western blot with pSer273-specific antibody
[2] = molecular target: T1, GST-tagged PPARγ ligand-binding domain (PPARγ LBD) (Homo sapiens, UniProt P37231); test: In vitro competition binding assay
T1 sequence (P37231 238-503 limits assumed): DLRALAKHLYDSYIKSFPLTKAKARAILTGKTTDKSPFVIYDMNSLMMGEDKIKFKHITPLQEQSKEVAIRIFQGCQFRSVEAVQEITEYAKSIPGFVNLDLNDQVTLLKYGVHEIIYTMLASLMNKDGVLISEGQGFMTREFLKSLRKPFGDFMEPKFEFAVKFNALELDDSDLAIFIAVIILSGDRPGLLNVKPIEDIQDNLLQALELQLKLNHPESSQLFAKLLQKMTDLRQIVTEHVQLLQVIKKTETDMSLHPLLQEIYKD

[3] = molecular target: T1, GST-tagged PPARγ ligand-binding domain (PPARγ LBD); test: biochemical

Row | Ki [3] [nM] | IC50 [2] [nM] | Compound | Adipocyte differentiation (Oil Red O staining of lipid droplets) (3T3-L1 cells) | Inhibition of PPARγ S273 phosphorylation [1] | fold improvement in PPARγ binding potency compared to parental compound UHC1 ([2]; ratio of IC50 vs UHC1)
1 |  |  | Cc1c(C)n(Cc2ccc(-c3ccccc3C(=O)O)cc2)c2ccc(C(=O)NCc3cccnc3)cc12 [UHC1, reference compound] | significantly reduced Oil Red O staining | significantly inhibited | 
2 |  |  | COc1cc(CNC(=O)c2ccc3c(c2)c(C)c(C)n3Cc2ccc(-c3ccccc3C(=O)O)cc2)ccc1O [Compound 2e, 4’-((5-((4-Hydroxy-3-methoxybenzyl)carbamoyl)-2,3-dimethyl-1H-indol-1-yl)methyl)-[1,1’-biphenyl]-2-carboxylic acid] |  | significantly inhibited | over 30 fold
3 | 254 | 325 | Cc1cc(C(=O)NCc2cccc(O)c2)ccc1NCc1ccc(-c2ccccc2C(=O)O)cc1 [Compound 5, 4’-(((4-((3-Hydroxybenzyl)carbamoyl)-2-methylphenyl)amino)methyl)-[1,1’-biphenyl]-2-carboxylic acid] |  |  | 
